Measurements: patent publication US20240150377A1, “MODULATORS OF CYSTIC FIBROSIS TRANSMEMBRANE CONDUCTANCE REGULATOR” (VERTEX PHARMACEUTICALS INCORPORATED, priority 2020, published 2024)
Like-named read-outs stand apart in the source and are kept apart here.

What was measured:
[1] = amide bond, 13-membered ring
CFTR = target: T1, CFTR (Homo sapiens, UniProt P13569, DEL508-508); experiment: HBE assay: Ussing chamber assay of CFTR-mediated short-circuit currents; assay type: cell-based; conditions: for EC50: read-out: HBE EC50
T1 construct: endogenous in cells; host or cells: primary human bronchial epithelial cells from CF subjects (F508del/MF-HBE), differentiated at air-liquid interface
T1 sequence (P13569 with tags, fused parts or gaps DEL508-508): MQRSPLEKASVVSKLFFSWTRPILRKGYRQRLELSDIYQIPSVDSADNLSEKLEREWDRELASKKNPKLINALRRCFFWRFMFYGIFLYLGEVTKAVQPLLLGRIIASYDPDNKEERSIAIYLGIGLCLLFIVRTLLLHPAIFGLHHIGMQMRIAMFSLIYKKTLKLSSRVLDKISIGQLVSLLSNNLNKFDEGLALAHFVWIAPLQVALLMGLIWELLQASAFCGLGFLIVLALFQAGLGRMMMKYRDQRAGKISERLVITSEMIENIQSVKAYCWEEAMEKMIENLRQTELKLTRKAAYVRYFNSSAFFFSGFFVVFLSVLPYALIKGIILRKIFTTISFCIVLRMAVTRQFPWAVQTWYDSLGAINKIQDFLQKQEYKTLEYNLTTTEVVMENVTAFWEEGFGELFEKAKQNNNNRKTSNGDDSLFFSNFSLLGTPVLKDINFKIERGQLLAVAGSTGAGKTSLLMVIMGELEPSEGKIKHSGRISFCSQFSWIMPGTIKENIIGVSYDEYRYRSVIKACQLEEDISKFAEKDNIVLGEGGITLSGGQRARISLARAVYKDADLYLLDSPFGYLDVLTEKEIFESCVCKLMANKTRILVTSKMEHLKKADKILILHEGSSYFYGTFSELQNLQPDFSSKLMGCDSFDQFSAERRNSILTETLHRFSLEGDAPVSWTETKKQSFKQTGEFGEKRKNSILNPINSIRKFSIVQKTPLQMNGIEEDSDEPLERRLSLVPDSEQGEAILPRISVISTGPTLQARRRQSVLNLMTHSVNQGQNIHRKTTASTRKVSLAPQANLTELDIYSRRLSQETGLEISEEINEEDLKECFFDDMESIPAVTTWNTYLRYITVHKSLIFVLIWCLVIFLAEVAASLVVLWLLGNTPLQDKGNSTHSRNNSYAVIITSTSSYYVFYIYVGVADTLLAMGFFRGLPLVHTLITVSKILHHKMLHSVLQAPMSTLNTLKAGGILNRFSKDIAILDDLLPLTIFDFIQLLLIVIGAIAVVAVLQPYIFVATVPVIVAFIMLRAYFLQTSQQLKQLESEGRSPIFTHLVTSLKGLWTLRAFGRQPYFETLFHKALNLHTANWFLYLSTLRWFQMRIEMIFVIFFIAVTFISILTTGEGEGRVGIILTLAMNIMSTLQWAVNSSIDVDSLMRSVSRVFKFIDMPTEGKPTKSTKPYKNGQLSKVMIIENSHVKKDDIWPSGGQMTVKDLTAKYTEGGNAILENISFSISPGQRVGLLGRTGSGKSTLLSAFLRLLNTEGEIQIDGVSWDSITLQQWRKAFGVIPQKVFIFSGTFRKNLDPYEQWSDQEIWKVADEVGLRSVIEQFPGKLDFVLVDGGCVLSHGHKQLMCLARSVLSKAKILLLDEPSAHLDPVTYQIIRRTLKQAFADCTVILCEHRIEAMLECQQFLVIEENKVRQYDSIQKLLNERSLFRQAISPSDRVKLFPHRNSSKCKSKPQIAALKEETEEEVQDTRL
Summary of the method: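 CFTR-mediated Isc (μA/cm²) equals the peak response to apical 20 μM forskolin minus the residual after a 20 μM each BPO/GlyH-101/CFTR inhibitor 172 cocktail, recorded in Ussing chambers at Vhold 0 mV, 37 °C, pH 7.4, with 30 μM apical amiloride. Cells were F508del/MF HBE cultures preincubated 18-24 h with corrector (concentration range or 10 μM) plus 1 μM ivacaftor in 20% human serum.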

[2] = Table 10, read-out: HBE Max activity (%)
[3] = Table 11, read-out: HBE Max Activity (%)

Cc1cccc(C)c1-c1cc2nc(n1)NS(=O)(=O)c1cccc(c1)C(=O)N(C[C@H]1COC(C)(C)O1)[C@H](CC(C)C)CO2
ring closure, yield after HPLC ([1]; from Cc1cccc(C)c1-c1cc(OC[C@@H](CC(C)C)NC[C@H]2COC(C)(C)O2)nc(NS(=O)(=O)c2cccc(C(=O)O)c2)n1, HATU/DIEA, DMF, 26.2 mM, 25.0 °C, 2.0 h, 2 steps): 12%

Cc1cccc(C)c1-c1cc2nc(n1)NS(=O)(=O)c1cccc(c1)C(=O)N(Cc1ccccn1)[C@H](CC(C)(C)C)CO2
ring closure, yield after HPLC ([1]; from Cc1cccc(C)c1-c1cc(OC[C@@H](CC(C)(C)C)NCc2ccccn2)nc(NS(=O)(=O)c2cccc(C(=O)O)c2)n1, HATU/TEA, DMF, 20.2 mM, 16.0 h): 41%

Cc1cccc(C)c1-c1cc2nc(n1)NS(=O)(=O)c1cccc(c1)C(=O)N(Cc1cncc(N(C)C3CCC3)n1)[C@@H]1CN(C(=O)OC(C)(C)C)C[C@H]1O2
ring closure, yield after HPLC ([1]; from Cc1cccc(C)c1-c1cc(O[C@@H]2CN(C(=O)OC(C)(C)C)C[C@H]2NCc2cncc(N(C)C3CCC3)n2)nc(NS(=O)(=O)c2cccc(C(=O)O)c2)n1, CDMT/NMM, DMF, 24.3 mM, 15.1 h): 48%

Cc1cccc(C)c1-c1cc2nc(n1)NS(=N)(=O)c1cccc(c1)C(=O)N(Cc1ncc(N3CC(C)(C)C3)cn1)[C@H](CC(C)(C)C)CO2 (single isomer, unassigned; isomer a)
ring closure, yield after HPLC ([1]; from Cc1cccc(C)c1-c1cc(OC[C@@H](CC(C)(C)C)NCc2ncc(N3CC(C)(C)C3)cn2)nc(NS(=N)(=O)c2cccc(C(=O)O)c2)n1, CDMT/NMM, DMF, 21.8 mM, 14.0 h): 9%

Cc1cccc(C)c1-c1cc2nc(n1)N=S(N)(=O)c1cccc(c1)C(=O)N(Cc1ncc(N3CC(C)(C)C3)cn1)[C@H](CC(C)(C)C)CO2 (single isomer, unassigned; isomer b)
ring closure, yield after HPLC ([1]; from 3-[[[4-[(2R)-2-[[5-(3,3-dimethylazetidin-1-yl)pyrimidin-2-yl]methylamino]-4,4-dimethyl-pentoxy]-6-(2,6-dimethylphenyl)pyrimidin-2-yl]amino]sulfonimidoyl]benzoic acid (hydrochloride salt) isomer B, CDMT/NMM, DMF, 18.4 mM): 4%

Cc1cccc(C)c1-c1cc2nc(n1)NS(=O)(=O)c1cccc(c1)C(=O)N(Cc1ccc(N3CCOCC3)cn1)[C@H](CC1CC3(CCC3)C1)CO2 [Compound 3, (11R)-6-(2,6-Dimethylphenyl)-12-[(5-morpholino-2-pyridyl)methyl]-2,2-dioxo-11-(spiro[3.3]heptan-2-ylmethyl)-9-oxa-2λ^6-thia-3,5,12,19-tetrazatricyclo[12.3.1.14,8]nonadeca-1(18),4(19),5,7,14,16-hexaen-13-one]
ring closure, yield after HPLC ([1]; from Cc1cccc(C)c1-c1cc(OC[C@@H](CC2CC3(CCC3)C2)NCc2ccc(N3CCOCC3)cn2)nc(NS(=O)(=O)c2cccc(C(=O)O)c2)n1, CDMT/NMM, DMF, 25.0 °C, 2.5 h, 2 steps): 11% | EC50 (CFTR; Table 10): < 1000 nM | Emax (CFTR; [2]): > 60%

Cc1cccc(C(C)C)c1-c1cc2nc(n1)NS(=O)(=O)c1cccc(c1)C(=O)N(Cc1ncc(N3CCOCC3)cn1)[C@H](CC(C)(C)C)CO2 [Compound 6, (11R)-11-(2,2-Dimethylpropyl)-6-[2-methyl-6-(propan-2-yl)phenyl]-12-{[5-(morpholin-4-yl)pyrimidin-2-yl]methyl}-9-oxa-2λ^6-thia-3,5,12,19-tetraazatricyclo[12.3.1.14,8]nonadeca-1(17),4(19),5,7,14(18),15-hexaene-2,2,13-trione]
ring closure, yield after HPLC ([1]; from Cc1cccc(C(C)C)c1-c1cc(OC[C@@H](CC(C)(C)C)NCc2ncc(N3CCOCC3)cn2)nc(NS(=O)(=O)c2cccc(C(=O)O)c2)n1, CDMT/NMM, DMF, 54.0 mM, 25.0 °C, 60.0 h, 2 steps): 21% | EC50 (CFTR; Table 11): < 1000 nM | Emax (CFTR; [3]): > 60%

Cc1cccc(OCc2ccccc2)c1-c1cc2nc(n1)NS(=O)(=O)c1cccc(c1)C(=O)N(Cc1ccc(N3CCOCC3)cn1)[C@H](CC(C)(C)C)CO2 [Compound 7, (11R)-6-(2-Benzyloxy-6-methyl-phenyl)-11-(2,2-dimethylpropyl)-12-[(5-morpholino-2-pyridyl)methyl]-2,2-dioxo-9-oxa-2λ^6-thia-3,5,12,19-tetrazatricyclo[12.3.1.14,8]nonadeca-1(18),4(19),5,7,14,16-hexaen-13-one]
ring closure, yield after HPLC ([1]; from Cc1cccc(OCc2ccccc2)c1-c1cc(OC[C@@H](CC(C)(C)C)NCc2ccc(N3CCOCC3)cn2)nc(NS(=O)(=O)c2cccc(C(=O)O)c2)n1, HATU/TBTU/DMTMM/DIEA, DCM, 3.76 mM, 25.0 °C, 1.0 h): 22% | activation at 10 µM (CFTR; Table 11, at 10 μM, read-out: HBE Activity at 10 μM (%)): > 60% | EC50 (CFTR; Table 11): < 1000 nM | Emax (CFTR; [3]): > 60%

Cc1cccc(C)c1-c1cc2nc(n1)NS(=O)(=O)c1cccc(c1)C(=O)N(Cc1ccc(OC3CCCC3)cn1)[C@H](CC(C)(C)C)CO2 [Compound 49, (11R)-12-[[5-(Cyclopentoxy)-2-pyridyl]methyl]-6-(2,6-dimethylphenyl)-11-(2,2-dimethylpropyl)-2,2-dioxo-9-oxa-2λ^6-thia-3,5,12,19-tetrazatricyclo[12.3.1.14,8]nonadeca-1(18),4(19),5,7,14,16-hexaen-13-one]
ring closure, yield after HPLC ([1]; from 3-[[4-[(2R)-2-[[5-(cyclopentoxy)-2-pyridyl]methylamino]-4,4-dimethyl-pentoxy]-6-(2,6-dimethylphenyl)pyrimidin-2-yl]sulfamoyl]benzoic acid (Dihydrochloride salt), HATU/DIEA, DMF, 28.0 mM, 25.0 °C): 49% | EC50 (CFTR; Table 10): 1000 to 3000 nM | Emax (CFTR; [2]): > 60%

Cc1cc(C)nc(CN2C(=O)c3cccc(c3)S(=O)(=O)Nc3nc(cc(-c4c(C)cccc4C)n3)OC[C@H]2CC(C)(C)C)c1 [Compound 55, (11R)-6-(2,6-Dimethylphenyl)-11-(2,2-dimethylpropyl)-12-[(4,6-dimethylpyridin-2-yl)methyl]-9-oxa-2λ^6-thia-3,5,12,19-tetraazatricyclo[12.3.1.14,8]nonadeca-1(18),4,6,8(19),14,16-hexaene-2,2,13-trione]
ring closure, yield after HPLC ([1]; from 3-[[4-(2,6-dimethylphenyl)-6-[(2R)-2-[(4,6-dimethyl-2-pyridyl)methylamino]-4,4-dimethyl-pentoxy]pyrimidin-2-yl]sulfamoyl]benzoic acid (Dihydrochloride salt), CDMT/NMM, DMF, 42.2 mM, 25.0 °C): 44% | EC50 (CFTR; Table 11): < 1000 nM | Emax (CFTR; [3]): > 60%

Cc1cccc(C)c1-c1cc2nc(n1)NS(=O)(=O)c1cccc(c1)C(=O)N(Cc1ncc(N3CCOCC3)cc1N1CCOCC1)[C@H](CC(C)(C)C)CO2 [Compound 56, (11R)-6-(2,6-Dimethylphenyl)-11-(2,2-dimethylpropyl)-12-[(3,5-dimorpholino-2-pyridyl)methyl]-2,2-dioxo-9-oxa-2λ^6-thia-3,5,12,19-tetrazatricyclo[12.3.1.14,8]nonadeca-1(18),4(19),5,7,14,16-hexaen-13-one]
ring closure, yield after HPLC ([1]; from Cc1cccc(C)c1-c1cc(OC[C@@H](CC(C)(C)C)NCc2ncc(N3CCOCC3)cc2N2CCOCC2)nc(NS(=O)(=O)c2cccc(C(=O)O)c2)n1, CDMT/NMM, DMF, 25.0 °C, 2.5 h, 2 steps): 22% | EC50 (CFTR; Table 10): < 1000 nM | Emax (CFTR; [2]): > 60%

Cc1cc(N2CCOCC2)cnc1CN1C(=O)c2cccc(c2)S(=O)(=O)Nc2nc(cc(-c3c(C)cccc3C)n2)OC[C@H]1CC(C)(C)C [Compound 57, (11R)-6-(2,6-Dimethylphenyl)-11-(2,2-dimethylpropyl)-12-[(3-methyl-5-morpholino-2-pyridyl)methyl]-2,2-dioxo-9-oxa-2λ^6-thia-3,5,12,19-tetrazatricyclo[12.3.1.14,8]nonadeca-1(18),4(19),5,7,14,16-hexaen-13-one]
ring closure, yield after HPLC ([1]; from Cc1cc(N2CCOCC2)cnc1CN[C@@H](COc1cc(-c2c(C)cccc2C)nc(NS(=O)(=O)c2cccc(C(=O)O)c2)n1)CC(C)(C)C, CDMT/NMM, DMF, 25.0 °C, 3.5 h, 2 steps): 19% | EC50 (CFTR; Table 10): < 1000 nM | Emax (CFTR; [2]): > 60%

Cc1cccc(C)c1-c1cc2nc(n1)NS(=O)(=O)c1cccc(c1)C(=O)N(Cc1ccc3ccccc3n1)[C@H](CC(C)(C)C)CO2 [Compound 58, (11R)-6-(2,6-Dimethylphenyl)-11-(2,2-dimethylpropyl)-2,2-dioxo-12-(2-quinolylmethyl)-9-oxa-2λ^6-thia-3,5,12,19-tetrazatricyclo[12.3.1.14,8]nonadeca-1(18),4(19),5,7,14,16-hexaen-13-one]
ring closure, yield after HPLC ([1]; from 3-[[4-(2,6-dimethylphenyl)-6-[(2R)-4,4-dimethyl-2-(2-quinolylmethylamino)pentoxy]pyrimidin-2-yl]sulfamoyl]benzoic acid (Dihydrochloride salt), HATU/DIEA, DMF, 27.5 mM, 25.0 °C): 73% | EC50 (CFTR; Table 10): < 1000 nM | Emax (CFTR; [2]): > 60%

Cc1cccc(C)c1-c1cc2nc(n1)NS(=O)(=O)c1cccc(c1)C(=O)N(Cc1cccn(C)c1=O)[C@H](CC(C)(C)C)CO2 [Compound 59, (11R)-6-(2,6-Dimethylphenyl)-11-(2,2-dimethylpropyl)-12-[(1-methyl-2-oxo-3-pyridyl)methyl]-2,2-dioxo-9-oxa-2λ^6-thia-3,5,12,19-tetrazatricyclo[12.3.1.14,8]nonadeca-1(18),4(19),5,7,14,16-hexaen-13-one]
ring closure, yield after HPLC ([1]; from Cc1cccc(C)c1-c1cc(OC[C@@H](CC(C)(C)C)NCc2cccn(C)c2=O)nc(NS(=O)(=O)c2cccc(C(=O)O)c2)n1, HATU/DIEA, DMF, 28.1 mM, 25.0 °C, 2.0 h): 54% | EC50 (CFTR; Table 11): < 1000 nM | Emax (CFTR; [3]): > 60%

Cc1cccc(C)c1-c1cc2nc(n1)NS(=O)(=O)c1cccc(c1)C(=O)N(Cc1ccc(N3CCOCC3)nn1)[C@H](CC(C)(C)C)CO2 [Compound 111, (11R)-6-(2,6-Dimethylphenyl)-11-(2,2-dimethylpropyl)-12-[(6-morpholinopyridazin-3-yl)methyl]-2,2-dioxo-9-oxa-2λ^6-thia-3,5,12,19-tetrazatricyclo[12.3.1.14,8]nonadeca-1(18),4(19),5,7,14,16-hexaen-13-one]
ring closure, yield after HPLC ([1]; from Cc1cccc(C)c1-c1cc(OC[C@@H](CC(C)(C)C)NCc2ccc(N3CCOCC3)nn2)nc(NS(=O)(=O)c2cccc(C(=O)O)c2)n1, CDMT/NMM, DMF, 25.0 °C, 3.0 h, 2 steps): 10% | EC50 (CFTR; Table 10): < 1000 nM | Emax (CFTR; [2]): > 60%
